The results in this text go back to ChEMBL document CHEMBL5550084, “Ferroptosis and its modulators: A raising target for cancer and Alzheimer's disease” (Bioorg Med Chem, 2024).

A short description of data set [1]: Growth inhibition of human BJeLR cell by Trypan blue staining based analysis. The data set is classed as toxicity. As to conditions: BJeLR cells.
Data set [2] has as its target T1, Cystine/glutamate transporter (Homo sapiens, UniProt Q9UPY5).
T1 sequence (Q9UPY5 whole entry): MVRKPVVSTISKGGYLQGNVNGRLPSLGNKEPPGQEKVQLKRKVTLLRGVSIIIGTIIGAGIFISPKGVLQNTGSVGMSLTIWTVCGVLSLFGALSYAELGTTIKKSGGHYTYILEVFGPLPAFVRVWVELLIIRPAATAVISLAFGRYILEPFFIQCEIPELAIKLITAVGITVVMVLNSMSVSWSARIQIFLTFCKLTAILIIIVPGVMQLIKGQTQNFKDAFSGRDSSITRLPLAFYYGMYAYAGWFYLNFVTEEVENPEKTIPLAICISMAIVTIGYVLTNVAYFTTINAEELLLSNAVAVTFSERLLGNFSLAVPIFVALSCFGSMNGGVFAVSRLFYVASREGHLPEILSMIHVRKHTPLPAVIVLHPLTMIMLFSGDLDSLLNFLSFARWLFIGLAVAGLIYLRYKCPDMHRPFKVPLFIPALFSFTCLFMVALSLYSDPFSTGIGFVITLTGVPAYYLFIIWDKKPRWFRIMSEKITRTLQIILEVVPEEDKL
Description: Inhibition of Xc- in human HT-1080 cells assessed as decrease in glutamate release incubated for 2 hrs by Amplex red assay. The data set is classed as cell-based.

`CC(C)Oc1ccncc1-n1c(CN2CCN(C(=O)COc3ccc(Cl)cc3)CC2)nc2ccccc2c1=O` registered a GI50 in data set [1] of more than 10 nM.

For `CC(C)Oc1ccc(C(=O)CN2CCOCC2)cc1-n1c(CN2CCN(C(=O)COc3ccc(Cl)cc3)CC2)nc2ccccc2c1=O`, the IC50 in data set [2] turned out to be 10 nM. Also, the GI50 in data set [1] came out at 427 nM.

In the case of `CC(C)Oc1ccc(C(=O)CN2CCN(C)CC2)cc1-n1c(CN2CCN(C(=O)COc3ccc(Cl)cc3)CC2)nc2ccccc2c1=O`, the IC50 in data set [2] was 300 nM. Moreover, in data set [1], the GI50 was 474 nM.

For the molecule `CC(C)Oc1ccc(C=O)cc1-n1c(CN2CCN(C(=O)COc3ccc(Cl)cc3)CC2)nc2ccccc2c1=O`, in data set [1], the GI50 is 8 nM.

Regarding `CC(C)Oc1ccc(CN2CCOCC2)cc1-n1c(CN2CCN(C(=O)COc3ccc(Cl)cc3)CC2)nc2ccccc2c1=O`, in data set [1], the GI50 was determined as 0.13 nM.

As for `CCOc1ccccc1-n1c(C(C)N2CCN(C(=O)COc3ccc(Cl)cc3)CC2)nc2ccccc2c1=O` (centres undefined) [ERASTIN], the 50% growth inhibitory concentration (GI50) in data set [1] was found to be 1.7 nM.

`CC(C)Oc1ccc(CN2CCNCC2)cc1-n1c(CN2CCN(C(=O)COc3ccc(Cl)cc3)CC2)nc2ccccc2c1=O` returned a GI50 in data set [1] of 0.9 nM.
